US20240199598A1 (MITOIMMUNE THERAPEUTICS INC., priority 2021, published 2024)

How the values were obtained:
[1] = Stability test of Crystalline form III of sulfate (light, dark, 60° C., 40° C./75% RH); format: physicochemical
Procedure: The chemical and physical stability of Crystalline form III were studied under conditions of light, light-shielding, 60° C. and 40° C./75% RH for 1 month. […] In the light stability test, the crystalline form was stored in a light stability test chamber without a lid and thus exposed to a total illuminance of 1.2 million lux-hr, and a sample vial completely covered with an aluminum foil was regarded as a light-shielded control (Dark control). Appearance by visual observation for 2 weeks, 1 month, 2 months and 3 months was recorded, and purity assessment and XPRD data collection for residual solid contents were performed.

[2] = Persistence of Crystalline form VIII under nitrogen and on exposure to air (XRPD); format: physicochemical
Procedure: A novel crystalline form was found by heating Crystalline form IV to remove water and maintaining the same for 10 minutes and named Crystalline form VIII.

[3] = Oral administration pharmacokinetic test using mice; settings: mice, oral; for AUClast / Cmax / Tmax / t½: 10 mg/kg; for Pharmacokinetic test, t½: summary Table 9
[4] = Physicochemical stability test of free form and 5 salts (60° C., 40° C./75% humidity, light); settings: for Final purity: HPLC; for Chemical stability (purity change %/1 w), 40° C./75% RH / Chemical stability (purity change %/1 w), 60° C. / Chemical stability (purity change %/1 w), Light stability: summary Table 9; for Sensitivity to heat, humidity and light conditions (in words): 40° C./75% humidity
Procedure: In the case of a light stability test, the vial was stored in a light stability test chamber while being not closed with a lid, and exposed to a total illuminance of 1.2 million lux-hr. A vial light-shielded with aluminum foil was used as an experimental control (Dark control). For stability assessment, state assessment by visual observation, purity assessment using HPLC, and crystalline form assessment using XRPD were conducted, and results thereof are shown in Table 7. […] In FIGS. 19 to 30, “Light” represents light irradiation condition results.

[5] = Dark control (light-shielded vial)

O=S(=O)(O)O.O=S1(=O)CCN(Cc2cc(NC3CCOCC3)c3[nH]c(-c4ccccc4)cc3c2)CC1
Area (%), impurity peak 3 (RRT 0.67) ([1]; 1.2 million lux-hr): 0.226% | Area (%), impurity peak 10 (RRT 1.24) ([1]; 1.2 million lux-hr): 0.221% | Area (%), impurity peak 12 (RRT 1.42) ([1]; 1.2 million lux-hr): 0.073% | Area of Sulfate (%), peak 7 (RRT 1.00, main peak) ([1]; 1.2 million lux-hr): 99.382% | Area (%), impurity peak 2 (RRT 0.63) ([1]; 40° C./75% RH, 1 M): 0.183% | Area (%), impurity peak 4 (RRT 0.68) ([1]; 40° C./75% RH, 1 M): 0.061% | Area (%), impurity peak 6 (RRT 0.91) ([1]; 40° C./75% RH, 1 M): 0.102% | Area (%), impurity peak 9 (RRT 1.12) ([1]; 40° C./75% RH, 1 M): 0.518% | Area (%), impurity peak 11 (RRT 1.32) ([1]; 40° C./75% RH, 1 M): 0.149% | Area of Sulfate (%), peak 7 (RRT 1.00, main peak) ([1]; 40° C./75% RH, 1 M): 98.711% | Area (%), impurity peak 1 (RRT 0.50) ([1]; 40° C./75% RH, 2 W): 0.069% | Area (%), impurity peak 3 (RRT 0.67) ([1]; 40° C./75% RH, 2 W): 0.226% | Area (%), impurity peak 10 (RRT 1.24) ([1]; 40° C./75% RH, 2 W): 0.321% | Area (%), impurity peak 12 (RRT 1.42) ([1]; 40° C./75% RH, 2 W): 0.084% | Area of Sulfate (%), peak 7 (RRT 1.00, main peak) ([1]; 40° C./75% RH, 2 W): 98.769% | Area (%), impurity peak 2 (RRT 0.63) ([1]; 60° C., 1 M): 0.168% | Area (%), impurity peak 4 (RRT 0.68) ([1]; 60° C., 1 M): 0.056% | Area (%), impurity peak 9 (RRT 1.12) ([1]; 60° C., 1 M): 0.325% | Area (%), impurity peak 11 (RRT 1.32) ([1]; 60° C., 1 M): 0.088% | Area of Sulfate (%), peak 7 (RRT 1.00, main peak) ([1]; 60° C., 1 M): 99.247% | Area (%), impurity peak 3 (RRT 0.67) ([1]; 60° C., 2 W): 0.231% | Area (%), impurity peak 5 (RRT 0.82) ([1]; 60° C., 2 W): 0.052% | Area (%), impurity peak 8 (RRT 1.11) ([1]; 60° C., 2 W): 0.114% | Area (%), impurity peak 10 (RRT 1.24) ([1]; 60° C., 2 W): 0.211% | Area (%), impurity peak 12 (RRT 1.42) ([1]; 60° C., 2 W): 0.054% | Area of Sulfate (%), peak 7 (RRT 1.00, main peak) ([1]; 60° C., 2 W): 99.237% | Area (%), impurity peak 3 (RRT 0.67) ([1]; Dark control): 0.209% | Area (%), impurity peak 8 (RRT 1.11) ([1]; Dark control): 0.069% | Area (%), impurity peak 12 (RRT 1.42) ([1]; Dark control): 0.078% | Area of Sulfate (%), peak 7 (RRT 1.00, main peak) ([1]; Dark control): 99.326% | Area (%), impurity peak 3 (RRT 0.67) ([1]; Initial): 0.204% | Area (%), impurity peak 8 (RRT 1.11) ([1]; Initial): 0.069% | Area (%), impurity peak 10 (RRT 1.24) ([1]; Initial): 0.215% | Area (%), impurity peak 12 (RRT 1.42) ([1]; Initial): 0.08% | Area of Sulfate (%), peak 7 (RRT 1.00, main peak) ([1]; Initial): 99.319%

O=S1(=O)CCN(Cc2cc(NC3CCOCC3)c3[nH]c(-c4ccccc4)cc3c2)CC1 [Crystalline form VIII]
Time until the crystalline form disappeared ([2]; exposed to air, changes to Crystalline form IV): ≤ 1 h | Persistence of the crystalline form (in words) ([2]; nitrogen filling protection after cooling to 25° C.): maintained upon nitrogen filling protection after cooling to 25 °C

Cl.O=S1(=O)CCN(Cc2cc(NC3CCOCC3)c3[nH]c(-c4ccccc4)cc3c2)CC1 [Hydrochloride]
AUClast [3]: 12261.43 ng·h/mL | Cmax [3]: 2381.1 ng/mL | Tmax [3]: 2 h | t½ [3]: 3.0 h | Pharmacokinetic test, t½ [3]: 3 h | Assay ([4]; 1.2 million lux-hr): 108.65% | Purity change ([4]; 1.2 million lux-hr): 0% | XRPD patterns ([4]; 1.2 million lux-hr): Pattern 1-I | Final purity ([4]; 1.2 million lux-hr): 99.95% | Appearance ([4]; 40° C./75% RH, 1 w): White powder | Assay ([4]; 40° C./75% RH, 1 w): 109.18% | Purity change ([4]; 40° C./75% RH, 1 w): −0.55% | XRPD patterns ([4]; 40° C./75% RH, 1 w): Pattern 1-I | Final purity ([4]; 40° C./75% RH, 1 w): 99.40% | Chemical stability (purity change %/1 w), 40° C./75% RH ([4]; 40° C./75% RH, 1 w): −0.05% | Appearance ([4]; 60° C., 1 w): White powder | Assay ([4]; 60° C., 1 w): 110.29% | Purity change ([4]; 60° C., 1 w): +0.05% | XRPD patterns ([4]; 60° C., 1 w): Pattern 1-I | Final purity ([4]; 60° C., 1 w): 100.0% | Chemical stability (purity change %/1 w), 60° C. ([4]; 60° C., 1 w): 0.18% | Sensitivity to heat, humidity and light conditions (in words) ([4]; 60° C., 1.2 million lux-hr): sensitive under a humidity condition | Assay ([4]; Dark control): 108.99% | Purity change ([4]; Dark control): +0.05% | XRPD patterns ([4]; Dark control): Pattern 1-I | Appearance [4, 5]: White powder | Final purity ([4]; Dark control): 100.0% | Chemical stability (purity change %/1 w), Light stability [4]: 0%

O=C(O)/C=C\C(=O)O.O=S1(=O)CCN(Cc2cc(NC3CCOCC3)c3[nH]c(-c4ccccc4)cc3c2)CC1 [Maleate]
AUClast [3]: 15780.45 ng·h/mL | Cmax [3]: 3115.9 ng/mL | Tmax [3]: 0.5 h | t½ [3]: 2.8 h | Pharmacokinetic test, t½ [3]: 3 h | Assay ([4]; 1.2 million lux-hr): 109.56% | Purity change ([4]; 1.2 million lux-hr): −0.17% | XRPD patterns ([4]; 1.2 million lux-hr): Pattern 7-I | Final purity ([4]; 1.2 million lux-hr): 96.86% | Appearance ([4]; 40° C./75% RH, 1 w): Yellow powder | Assay ([4]; 40° C./75% RH, 1 w): 108.85% | Purity change ([4]; 40° C./75% RH, 1 w): −0.77% | XRPD patterns ([4]; 40° C./75% RH, 1 w): Pattern 7-I | Final purity ([4]; 40° C./75% RH, 1 w): 96.26% | Chemical stability (purity change %/1 w), 40° C./75% RH ([4]; 40° C./75% RH, 1 w): −0.77% | Appearance ([4]; 60° C., 1 w): Yellow powder | Assay ([4]; 60° C., 1 w): 110.00% | Purity change ([4]; 60° C., 1 w): −0.44% | XRPD patterns ([4]; 60° C., 1 w): Pattern 7-I | Final purity ([4]; 60° C., 1 w): 96.59% | Chemical stability (purity change %/1 w), 60° C. ([4]; 60° C., 1 w): −0.44% | Sensitivity to heat, humidity and light conditions (in words) ([4]; 60° C., 1.2 million lux-hr): sensitive under all conditions including heat, humidity and light irradiation conditions | Assay ([4]; Dark control): 109.66% | Purity change ([4]; Dark control): +0.01% | XRPD patterns ([4]; Dark control): Pattern 7-I | Appearance [4, 5]: Yellow powder | Final purity ([4]; Dark control): 97.04% | Chemical stability (purity change %/1 w), Light stability [4]: −0.17%

CS(=O)(=O)O.O=S1(=O)CCN(Cc2cc(NC3CCOCC3)c3[nH]c(-c4ccccc4)cc3c2)CC1 [Mesylate]
AUClast [3]: 10119.7 ng·h/mL | Cmax [3]: 2595.2 ng/mL | Tmax [3]: 0.5 h | t½ [3]: 2.3 h | Pharmacokinetic test, t½ [3]: 2 h | Assay ([4]; 1.2 million lux-hr): 102.69% | Purity change ([4]; 1.2 million lux-hr): −0.82% | XRPD patterns ([4]; 1.2 million lux-hr): Pattern 4-I | Final purity ([4]; 1.2 million lux-hr): 99.18% | Purity decrease ([4]; 40° C. RH for 1 week): ≥ 3% | Appearance ([4]; 40° C./75% RH, 1 w): White powder | Assay ([4]; 40° C./75% RH, 1 w): 101.35% | Purity change ([4]; 40° C./75% RH, 1 w): −3.29% | XRPD patterns ([4]; 40° C./75% RH, 1 w): Pattern 4-I | Final purity ([4]; 40° C./75% RH, 1 w): 96.71% | Chemical stability (purity change %/1 w), 40° C./75% RH ([4]; 40° C./75% RH, 1 w): −3.29% | Appearance ([4]; 60° C., 1 w): White powder | Assay ([4]; 60° C., 1 w): 107.36% | Purity change ([4]; 60° C., 1 w): 0% | XRPD patterns ([4]; 60° C., 1 w): Pattern 4-I | Final purity ([4]; 60° C., 1 w): 100.0% | Chemical stability (purity change %/1 w), 60° C. ([4]; 60° C., 1 w): 0% | Sensitivity to heat, humidity and light conditions (in words) ([4]; 60° C., 1.2 million lux-hr): sensitive under humidity and light conditions | Assay ([4]; Dark control): 103.03% | Purity change ([4]; Dark control): 0% | XRPD patterns ([4]; Dark control): Pattern 4-I | Appearance [4, 5]: White powder | Final purity ([4]; Dark control): 100.0% | Chemical stability (purity change %/1 w), Light stability [4]: −0.82%

Cc1ccc(S(=O)(=O)O)cc1.O=S1(=O)CCN(Cc2cc(NC3CCOCC3)c3[nH]c(-c4ccccc4)cc3c2)CC1 [Tosylate]
AUClast [3]: 18850.98 ng·h/mL | Cmax [3]: 3151.3 ng/mL | Tmax [3]: 0.5 h | t½ [3]: 2.8 h | Pharmacokinetic test, t½ [3]: 3 h | Assay ([4]; 1.2 million lux-hr): 105.78% | Purity change ([4]; 1.2 million lux-hr): −0.24% | XRPD patterns ([4]; 1.2 million lux-hr): Pattern 6-I | Final purity ([4]; 1.2 million lux-hr): 98.77% | Appearance ([4]; 40° C./75% RH, 1 w): White powder | Assay ([4]; 40° C./75% RH, 1 w): 107.73% | Purity change ([4]; 40° C./75% RH, 1 w): −0.01% | XRPD patterns ([4]; 40° C./75% RH, 1 w): Pattern 6-I | Final purity ([4]; 40° C./75% RH, 1 w): 99.00% | Chemical stability (purity change %/1 w), 40° C./75% RH ([4]; 40° C./75% RH, 1 w): −0.01% | Appearance ([4]; 60° C., 1 w): White powder | Assay ([4]; 60° C., 1 w): 108.33% | Purity change ([4]; 60° C., 1 w): −0.05% | XRPD patterns ([4]; 60° C., 1 w): Pattern 6-I | Final purity ([4]; 60° C., 1 w): 98.96% | Chemical stability (purity change %/1 w), 60° C. ([4]; 60° C., 1 w): −0.05% | Sensitivity to heat, humidity and light conditions (in words) ([4]; 60° C., 1.2 million lux-hr): sensitive to light | Assay ([4]; Dark control): 108.98% | Purity change ([4]; Dark control): −0.03% | XRPD patterns ([4]; Dark control): Pattern 6-I | Appearance [4, 5]: White powder | Final purity ([4]; Dark control): 98.98% | Chemical stability (purity change %/1 w), Light stability [4]: −0.24%
